System: hypoechoic-echolucent carotid and femoral atherosclerotic plaques
Test: Grey Scale Median (GSM) ultrasound measurement of echolucent carotid and femoral atherosclerotic plaques, prospective 6-month trial
Format: in vivo, human
Conditions: once daily for 6 months, 100 mg/day of each component; responders/patients in group; ** = significant vs initial value and control
Procedure: Variation in echogenicity of echolucent carotid and femoral atherosclerotic plaques with combined treatment (Pycnogenol 100 mg+TTFCA 100 mg, with or without Aspirin 100 mg). A prospective, pilot 6-month trial. (TTFCA=total triterpenic fraction of Centella asiatica) This study has evaluated whether a combination of Pycnogenol® and TTFCA, with or without Aspirin, was effective in reducing plaque progression and cardiovascular risk of events by decreasing platelet aggregation, local arterial inflammation and the intima-media scarring process due to inflammation at the level of carotid and femoral arteries bifurcations. This prospective placebo-controlled trial had the purpose of evaluating the effects of Pycnogenol® and TTFCA, with or without Aspirin, selectivity on hypoechoic-echolucent plaques. The sonographic examination of carotid plaques was made with high-resolution ultrasound. Capturing plaques images, digital image processing, and normalization were standardized. The interobserver, […], gain-level variability were also standardized using as reference blood (black) for the most echolucent parts of the plaque and the adventitia (white) as the most echogenic part. The technique for plaque characterization and GSM (Grey Scale Median) measurements had been previously described in details. […]

CC(=O)Oc1ccccc1C(=O)O [Aspirin, acetylsalicylic acid]
At 6 months: number of patients with an increase of plaques Grey Scale Median of at least 5 points: 2/18
